Our source for the Ki values is US20090142347A1, “Tissue-Nonspecific Alkaline Phosphatase (TNAP): a Therapeutic Target for Arterial Calcification” (THE BURNHAM INSTITUTE FOR MEDICAL RESEARCH, priority 2004, published 2009).

Assay [1] deals with T1, chTNALP (Gallus gallus, UniProt Q92058).
T1 sequence (Q92058 17-498): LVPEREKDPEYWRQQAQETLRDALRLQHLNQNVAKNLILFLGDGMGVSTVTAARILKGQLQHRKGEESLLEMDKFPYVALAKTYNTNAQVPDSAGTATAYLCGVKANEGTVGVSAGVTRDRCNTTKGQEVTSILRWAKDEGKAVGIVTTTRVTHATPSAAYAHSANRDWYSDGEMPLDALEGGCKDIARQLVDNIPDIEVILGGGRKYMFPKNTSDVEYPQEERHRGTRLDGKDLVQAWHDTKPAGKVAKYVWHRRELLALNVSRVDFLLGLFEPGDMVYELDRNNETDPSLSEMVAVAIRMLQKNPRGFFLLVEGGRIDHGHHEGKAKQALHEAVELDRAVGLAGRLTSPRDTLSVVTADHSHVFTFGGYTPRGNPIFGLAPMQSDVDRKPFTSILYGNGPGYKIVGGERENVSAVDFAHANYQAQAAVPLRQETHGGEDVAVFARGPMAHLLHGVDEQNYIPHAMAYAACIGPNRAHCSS
Briefly: Ki of uncompetitive inhibitors (pNPP substrate). It counts as biochemical, chicken. Conditions: read-out: Ki for various inhibitors. The source says: (See Kozlenkov A, et al., 2002). […] TNAP and PLAP structures were superimposed and the amino acid differences within a 12 Å radius around the catalytic Zn1 ion were pinpointed. The difference between human TNAP and chicken TNAP were also mapped because it is reported that chicken TNAP is much less susceptible to levamisol than is human TNAP. In total, six positions with amino acid differences were found, which could be clustered into two groups. […] In addition, […] and […] were also investigated.

The target in assay [2] is T2, hPLALP (E107, G108) (Homo sapiens, UniProt P05187, F129E/Q130G).
T2 construct: made in house; host or cells: COS-7 (given only for the TNAP-Flag constructs)
Description: Ki of uncompetitive inhibitors (pNPP substrate). Conditions: hPLALP mutant (E107, G108); read-out: Ki for various inhibitors. It is filed as biochemical. On the procedure:
(§1) In brief, samples of the enzymes were added to microtiter plates coated with M2 anti-FLAG antibody, and saturating activities with the substrate pNPP were measured in 1 M DEA/HCl buffer, pH 9.8, containing 1 mM MgCl2 and 20 .micro.M ZnCl2.

Assay [3] deals with T3, hPLALP (E107, G429) (Homo sapiens, UniProt P05187, E451G/F129E).
T3 construct: made in house; host or cells: COS-7 (given only for the TNAP-Flag constructs)
Description: Ki of uncompetitive inhibitors (pNPP substrate). It counts as biochemical. Conditions: hPLALP mutant (E107, G429); read-out: Ki for various inhibitors. The procedure: as §1

Assay [4] concerns the target T4, hPLALP (G108, G429) (Homo sapiens, UniProt P05187, E451G/Q130G).
T4 construct: made in house; host or cells: COS-7 (given only for the TNAP-Flag constructs)
Briefly: Ki of uncompetitive inhibitors (pNPP substrate). It counts as biochemical. Particulars: hPLALP mutant (G108, G429); read-out: Ki for various inhibitors. On the procedure: as §1

Assay [5] deals with T5, hPLALP (Homo sapiens, UniProt P05187).
T5 construct: made in house
Description: Ki of uncompetitive inhibitors (pNPP substrate). It counts as biochemical. Conditions: read-out: Ki for various inhibitors. On the procedure: as §1

Assay [6] has as its target T6, hPLALP (R428, H429) (Homo sapiens, UniProt P05187, D450R/E451H).
T6 construct: made in house; host or cells: COS-7 (given only for the TNAP-Flag constructs)
Description: Ki of uncompetitive inhibitors (pNPP substrate). It is filed as biochemical. Conditions: hPLALP mutant (R428, H429); read-out: Ki for various inhibitors. On the procedure: as §1

The target in assay [7] is T7, hPLALP D165 (Homo sapiens, UniProt P05187, N187D).
T7 construct: made in house; host or cells: COS-7 (given only for the TNAP-Flag constructs)
Briefly: Ki of uncompetitive inhibitors (pNPP substrate). It counts as biochemical. Particulars: hPLALP mutant D165; read-out: Ki for various inhibitors. The procedure: as §1

Assay [8] concerns the target T8, hPLALP E107 (Homo sapiens, UniProt P05187, F129E).
T8 construct: made in house
Briefly: Ki of uncompetitive inhibitors (pNPP substrate). It is filed as biochemical. Particulars: hPLALP mutant E107; read-out: Ki for various inhibitors. On the procedure: as §1

Assay [9] deals with T9, hPLALP G108 (Homo sapiens, UniProt P05187, Q130G).
T9 construct: made in house; host or cells: COS-7 (given only for the TNAP-Flag constructs)
Description: Ki of uncompetitive inhibitors (pNPP substrate). It counts as biochemical. Particulars: hPLALP mutant G108; read-out: Ki for various inhibitors. On the procedure: as §1

Assay [10] deals with T10, hPLALP G429 (Homo sapiens, UniProt P05187, E451G).
T10 construct: made in house; host or cells: COS-7 (given only for the TNAP-Flag constructs)
Description: Ki of uncompetitive inhibitors (pNPP substrate). It counts as biochemical. Particulars: hPLALP mutant G429; read-out: Ki for various inhibitors. The procedure: as §1

Assay [11] has as its target T11, hPLALP H429 (Homo sapiens, UniProt P05187, E451H).
T11 construct: made in house; host or cells: COS-7 (given only for the TNAP-Flag constructs)
Description: Ki of uncompetitive inhibitors (pNPP substrate). Conditions: hPLALP mutant H429; read-out: Ki for various inhibitors. It is filed as biochemical. The procedure: as §1

Assay [12] addresses T12, hPLALP R428 (Homo sapiens, UniProt P05187, D450R).
T12 construct: made in house; host or cells: COS-7 (given only for the TNAP-Flag constructs)
Description: Ki of uncompetitive inhibitors (pNPP substrate). It is filed as biochemical. Conditions: hPLALP mutant R428; read-out: Ki for various inhibitors. The procedure: as §1

For assay [13], the target named is T13, hPLALP S119 (Homo sapiens, UniProt P05187, N141S).
T13 construct: made in house; host or cells: COS-7 (given only for the TNAP-Flag constructs)
Description: Ki of uncompetitive inhibitors (pNPP substrate). It is filed as biochemical. Particulars: hPLALP mutant S119; read-out: Ki for various inhibitors. The procedure:
as §1

Assay [14] deals with hTNALP (Homo sapiens, UniProt P05186). Briefly: biochemical.
Assay [15] has as its target hTNALP A108 (Homo sapiens, UniProt P05186, E125A). Description: biochemical.
The target in assay [16] is hTNALP F108 (Homo sapiens, UniProt P05186, E125F). Description: biochemical.
For assay [17], the target named is hTNALP A109 (Homo sapiens, UniProt P05186, G126A). Description: biochemical.
Assay [18] addresses hTNALP D120 (Homo sapiens, UniProt P05186, S137D). Description: biochemical.
The target of assay [19] is hTNALP N120 (Homo sapiens, UniProt P05186, S137N). Description: biochemical.
The target in assay [20] is hTNALP A168 (Homo sapiens, UniProt P05186, D185A). Description: biochemical.
The target of assay [21] is hTNALP D433 (Homo sapiens, UniProt P05186, R450D). Description: biochemical.
In assay [22] the target is hTNALP A434 (Homo sapiens, UniProt P05186, H451A). Briefly: biochemical.
The target in assay [23] is hTNALP B434 (Homo sapiens, UniProt P05186, H451E). Briefly: biochemical.
Sequence of hTNALP B434 (P05186 whole entry H451E): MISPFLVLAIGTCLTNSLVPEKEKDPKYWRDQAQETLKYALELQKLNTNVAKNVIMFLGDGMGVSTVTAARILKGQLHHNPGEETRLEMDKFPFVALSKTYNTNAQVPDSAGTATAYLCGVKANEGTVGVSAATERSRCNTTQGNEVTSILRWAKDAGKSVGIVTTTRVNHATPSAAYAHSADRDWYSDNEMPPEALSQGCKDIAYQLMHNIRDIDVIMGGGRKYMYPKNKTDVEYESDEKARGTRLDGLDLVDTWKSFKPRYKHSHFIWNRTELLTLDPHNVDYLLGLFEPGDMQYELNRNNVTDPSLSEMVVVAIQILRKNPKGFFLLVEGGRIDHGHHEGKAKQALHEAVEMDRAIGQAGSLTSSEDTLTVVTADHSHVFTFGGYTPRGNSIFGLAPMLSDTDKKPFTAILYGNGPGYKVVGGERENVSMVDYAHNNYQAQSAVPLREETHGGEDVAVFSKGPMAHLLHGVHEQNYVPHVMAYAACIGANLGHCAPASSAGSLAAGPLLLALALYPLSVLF

T4 sequence (P05187 23-506 Q130G/E451G limits assumed): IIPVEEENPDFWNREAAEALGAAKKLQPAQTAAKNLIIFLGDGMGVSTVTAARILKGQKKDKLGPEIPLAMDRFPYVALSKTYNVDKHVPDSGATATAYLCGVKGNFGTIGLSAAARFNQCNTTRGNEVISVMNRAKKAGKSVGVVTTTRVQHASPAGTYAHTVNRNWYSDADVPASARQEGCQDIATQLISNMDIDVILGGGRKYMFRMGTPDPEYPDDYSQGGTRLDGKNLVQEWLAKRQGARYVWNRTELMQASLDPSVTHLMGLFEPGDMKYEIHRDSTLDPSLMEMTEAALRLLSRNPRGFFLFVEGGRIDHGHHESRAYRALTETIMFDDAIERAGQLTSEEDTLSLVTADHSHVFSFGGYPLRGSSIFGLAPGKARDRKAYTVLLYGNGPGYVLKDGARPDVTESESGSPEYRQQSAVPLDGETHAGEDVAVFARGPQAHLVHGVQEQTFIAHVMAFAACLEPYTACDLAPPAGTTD
Sequence of hTNALP D120 (P05186 18-501 S137D): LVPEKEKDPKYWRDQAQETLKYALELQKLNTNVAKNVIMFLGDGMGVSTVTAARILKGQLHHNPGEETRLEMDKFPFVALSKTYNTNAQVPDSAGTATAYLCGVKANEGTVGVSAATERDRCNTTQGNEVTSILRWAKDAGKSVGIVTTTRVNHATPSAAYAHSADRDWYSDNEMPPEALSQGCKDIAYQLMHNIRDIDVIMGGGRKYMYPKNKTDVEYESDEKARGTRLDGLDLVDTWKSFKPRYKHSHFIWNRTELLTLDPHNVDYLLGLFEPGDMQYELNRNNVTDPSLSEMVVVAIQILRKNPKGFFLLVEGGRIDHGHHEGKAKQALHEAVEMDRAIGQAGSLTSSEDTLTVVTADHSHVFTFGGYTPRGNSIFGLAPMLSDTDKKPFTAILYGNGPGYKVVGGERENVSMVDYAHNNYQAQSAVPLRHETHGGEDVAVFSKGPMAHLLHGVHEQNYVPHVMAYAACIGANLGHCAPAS
Sequence of hTNALP A108 (P05186 18-501 E125A): as the sequence (P05186 18-501 S137D) above, with E108A, D120S counted along it
T13 sequence (P05187 23-506 N141S limits assumed): as the sequence (P05187 23-506 Q130G/E451G limits assumed) above, with G108Q, N119S, G429E counted along it
T5 sequence (P05187 23-506 limits assumed): as the sequence (P05187 23-506 Q130G/E451G limits assumed) above, with G108Q, G429E counted along it
Sequence of hTNALP F108 (P05186 18-501 E125F): as the sequence (P05186 18-501 S137D) above, with E108F, D120S counted along it
T7 sequence (P05187 23-506 N187D limits assumed): as the sequence (P05187 23-506 Q130G/E451G limits assumed) above, with G108Q, N165D, G429E counted along it
T9 sequence (P05187 23-506 Q130G limits assumed): as the sequence (P05187 23-506 Q130G/E451G limits assumed) above, with G429E counted along it
Sequence of hTNALP (P05186 18-501): as the sequence (P05186 18-501 S137D) above, with D120S counted along it
Sequence of hTNALP A434 (P05186 18-501 H451A): as the sequence (P05186 18-501 S137D) above, with D120S, H434A counted along it
Sequence of hTNALP D433 (P05186 whole entry R450D): as the sequence (P05186 whole entry H451E) above, with R450D, E451H counted along it
T11 sequence (P05187 23-506 E451H limits assumed): as the sequence (P05187 23-506 Q130G/E451G limits assumed) above, with G108Q, G429H counted along it
T10 sequence (P05187 23-506 E451G limits assumed): as the sequence (P05187 23-506 Q130G/E451G limits assumed) above, with G108Q counted along it
Sequence of hTNALP A168 (P05186 18-501 D185A): as the sequence (P05186 18-501 S137D) above, with D120S, D168A counted along it
Sequence of hTNALP N120 (P05186 18-501 S137N): as the sequence (P05186 18-501 S137D) above, with D120N counted along it
T6 sequence (P05187 23-506 D450R/E451H limits assumed): as the sequence (P05187 23-506 Q130G/E451G limits assumed) above, with G108Q, D428R, G429H counted along it
T8 sequence (P05187 23-506 F129E limits assumed): as the sequence (P05187 23-506 Q130G/E451G limits assumed) above, with F107E, G108Q, G429E counted along it
T2 sequence (P05187 23-506 F129E/Q130G limits assumed): as the sequence (P05187 23-506 Q130G/E451G limits assumed) above, with F107E, G429E counted along it
T12 sequence (P05187 23-506 D450R limits assumed): as the sequence (P05187 23-506 Q130G/E451G limits assumed) above, with G108Q, D428R, G429E counted along it
T3 sequence (P05187 23-506 F129E/E451G limits assumed): as the sequence (P05187 23-506 Q130G/E451G limits assumed) above, with F107E, G108Q counted along it
Sequence of hTNALP A109 (P05186 18-501 G126A): as the sequence (P05186 18-501 S137D) above, with G109A, D120S counted along it

For the compound `N=C(N)NCCCC[C@H](N)C(=O)O` [L-hArg, L-homoarginine], the Ki in assay [1] came out at 1.9 ± 0.2 mM; in assay [2], 12 ± 1.6 mM; in assay [3], 1.5 ± 0.2 mM; in [4], 18 ± 2 mM; in [5], 59 ± 15 mM; in assay [6] it was 14 ± 1 mM. The inhibitory constant (Ki) in [7] was 59 ± 25 mM; in assay [8], 5.7 ± 0.9 mM; in assay [9] it was 60 ± 9 mM; in assay [10], 12 ± 2 mM; in [11], 10.7 ± 1.5 mM; in assay [12] it was 36 ± 4 mM. Moreover, the Ki amounted to 61 ± 13 mM in [13]; 1.4 ± 0.1 mM in [14]; 14 ± 1 mM in [15]; 48 ± 11 mM in assay [16]; 1.3 ± 0.2 mM in assay [17]; 1.4 ± 0.1 mM in assay [18]. The inhibition constant Ki worked out at 1.3 ± 0.1 mM in assay [19]; 1.5 ± 0.3 mM in [20]; 1.5 ± 0.2 mM in [21]; 1.5 ± 0.1 mM in assay [22]; 6.8 ± 0.5 mM in [23].
Consider `N[C@@H](Cc1ccccc1)C(=O)O` [L-Phe, L-phenylalanine], for which the Ki worked out at 11 ± 0.9 mM in [1]; 23 ± 2 mM in [2]; 1 ± 0.16 mM in assay [3]; 0.49 ± 0.06 mM in assay [4]; 0.75 ± 0.05 mM in assay [5]; 0.35 ± 0.04 mM in assay [6]. Also, the inhibition constant Ki came out at 0.54 ± 0.04 mM in assay [7]; 3.8 ± 0.4 mM in assay [8]; 2.4 ± 0.3 mM in assay [9]; 0.09 ± 0.01 mM in assay [10]; 0.31 ± 0.03 mM in assay [11]; 0.54 ± 0.05 mM in assay [12]. The inhibition constant Ki in assay [13] was determined as 0.67 ± 0.08 mM; in assay [14], 19 ± 6 mM; in assay [15] it was 27 ± 4 mM; in assay [16], 3.7 ± 0.5 mM; in assay [17] it was 20 ± 4 mM; in assay [18], 34 ± 4 mM. Besides, the Ki in assay [19] was 23 ± 8 mM; in assay [20] it was 30 ± 4 mM; in [21], 23 ± 5 mM; in assay [22], 21 ± 6 mM; in [23], 43 ± 8 mM.
